Laboratory results taken from ChEMBL document CHEMBL1201862, “PubChem BioAssay data set” (2004).
Calls of active or inactive are those of the source.

Tests used:
[1] = Luminescence Cell-Based Dose Retest to Confirm Inhibitors of Cancer Stem Cells. [Related pubchem assays (depositor defined):AID2717, AID2721]; type: functional; conditions: Homo sapiens
[2] = Luminescence Cell-Based Dose Confirmation HTS to Identify Activators of 5'UTR Stem-Loop Driven Alpha-Synuclein mRNA Translation in H4 Neuroglioblastoma Cells. [Related pubchem assays: 1829 (Project Summary), 1814 (Primary HTS)]; type: functional
[3] = Luminescence Cell-Based Dose Response HTS to Identify Activators of Luciferase Translation or Activity in H4 […] Cells. [Related pubchem assays: 1829 (Project Summary), 1814 (Primary HTS)]; type: functional
[4] = test system: H4; assay: Luminescence Cell-Based Dose Response HTS to Identify Activators of 5'UTR Stem-Loop Driven Prion Protein mRNA Translation in H4 Neuroglioblastoma Cells. [Related pubchem assays: 1829 (Project Summary), 1814 (Primary HTS)]; type: functional; conditions: Homo sapiens
[5] = biological target: Cytochrome P450 2D6 (Homo sapiens, UniProt P10635);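 note: CYP2D6 member of a cytochrome P450 panel assay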
Cytochrome P450 2D6, sequence (P10635 whole entry): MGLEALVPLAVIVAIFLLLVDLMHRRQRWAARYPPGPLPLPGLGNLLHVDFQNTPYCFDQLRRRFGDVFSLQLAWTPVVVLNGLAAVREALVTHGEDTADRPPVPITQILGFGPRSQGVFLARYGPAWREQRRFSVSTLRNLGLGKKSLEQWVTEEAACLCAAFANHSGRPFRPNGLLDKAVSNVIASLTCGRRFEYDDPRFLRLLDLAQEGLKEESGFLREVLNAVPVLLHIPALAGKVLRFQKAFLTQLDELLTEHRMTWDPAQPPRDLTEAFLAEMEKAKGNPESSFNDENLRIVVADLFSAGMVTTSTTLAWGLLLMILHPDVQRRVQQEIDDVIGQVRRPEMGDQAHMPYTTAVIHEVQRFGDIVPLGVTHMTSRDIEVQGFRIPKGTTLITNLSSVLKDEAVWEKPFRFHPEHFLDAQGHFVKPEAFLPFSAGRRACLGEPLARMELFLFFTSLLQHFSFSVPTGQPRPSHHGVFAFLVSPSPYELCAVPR

[6] = biological target: Cytochrome P450 3A4 (Homo sapiens, UniProt P08684);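 note: CYP3A4 tested as one member of a cytochrome P450 panel screen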
Cytochrome P450 3A4, sequence (P08684 whole entry): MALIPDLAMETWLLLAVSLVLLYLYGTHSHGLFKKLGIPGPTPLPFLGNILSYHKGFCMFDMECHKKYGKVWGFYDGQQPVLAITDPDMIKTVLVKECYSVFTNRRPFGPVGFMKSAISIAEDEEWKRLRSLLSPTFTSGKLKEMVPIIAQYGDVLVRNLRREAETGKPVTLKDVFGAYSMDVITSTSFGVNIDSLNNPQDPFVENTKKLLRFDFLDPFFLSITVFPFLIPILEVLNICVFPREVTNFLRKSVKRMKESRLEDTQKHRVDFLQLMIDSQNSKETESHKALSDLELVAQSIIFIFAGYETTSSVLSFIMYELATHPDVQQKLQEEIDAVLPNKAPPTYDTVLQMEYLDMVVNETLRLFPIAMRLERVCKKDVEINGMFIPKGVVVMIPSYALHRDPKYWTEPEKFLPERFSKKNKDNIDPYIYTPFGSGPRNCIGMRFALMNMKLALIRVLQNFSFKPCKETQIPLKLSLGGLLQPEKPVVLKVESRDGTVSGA

[7] = biological target: T1, Replicative DNA helicase DnaB (Mycobacterium tuberculosis, UniProt P9WMR3); assay: DnaB intein splicing inhibitors, dose response, biochemical, cell-free fluorescence (AID 449749); type: functional
T1 sequence (P9WMR3 whole entry): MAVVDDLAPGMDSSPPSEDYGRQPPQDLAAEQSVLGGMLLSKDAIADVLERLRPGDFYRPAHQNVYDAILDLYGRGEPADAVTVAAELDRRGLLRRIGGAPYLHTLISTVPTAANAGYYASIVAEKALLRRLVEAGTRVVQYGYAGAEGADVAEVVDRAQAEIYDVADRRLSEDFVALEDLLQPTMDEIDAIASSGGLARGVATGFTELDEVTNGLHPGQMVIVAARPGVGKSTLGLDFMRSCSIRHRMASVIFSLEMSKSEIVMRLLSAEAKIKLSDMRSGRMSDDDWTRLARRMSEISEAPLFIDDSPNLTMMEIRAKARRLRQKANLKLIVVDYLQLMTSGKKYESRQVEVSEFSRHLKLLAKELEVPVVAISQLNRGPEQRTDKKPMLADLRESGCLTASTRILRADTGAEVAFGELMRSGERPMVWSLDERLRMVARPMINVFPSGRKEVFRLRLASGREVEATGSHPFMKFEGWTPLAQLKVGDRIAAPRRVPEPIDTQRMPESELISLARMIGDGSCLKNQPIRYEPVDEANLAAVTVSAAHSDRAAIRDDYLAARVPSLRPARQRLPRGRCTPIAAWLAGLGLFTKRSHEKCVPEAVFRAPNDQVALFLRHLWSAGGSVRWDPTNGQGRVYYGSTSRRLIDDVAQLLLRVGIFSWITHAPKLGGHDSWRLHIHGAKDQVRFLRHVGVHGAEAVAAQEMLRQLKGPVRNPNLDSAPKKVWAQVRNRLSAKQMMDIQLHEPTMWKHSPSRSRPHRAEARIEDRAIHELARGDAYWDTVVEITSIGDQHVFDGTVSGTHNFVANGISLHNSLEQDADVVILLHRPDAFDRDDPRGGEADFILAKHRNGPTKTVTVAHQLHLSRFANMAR

[8] = biological target: T2, Protein RecA (Mycobacterium tuberculosis, UniProt P9WHJ3); assay: Fluorescence Cell-Free Homogeneous Dose Retest to Identify Inhibitors of RecA-Intein Splicing Activity. [Related pubchem assays (depositor defined):AID2097, AID2223, AID489010, AID492950]; type: functional
T2 sequence (P9WHJ3 whole entry): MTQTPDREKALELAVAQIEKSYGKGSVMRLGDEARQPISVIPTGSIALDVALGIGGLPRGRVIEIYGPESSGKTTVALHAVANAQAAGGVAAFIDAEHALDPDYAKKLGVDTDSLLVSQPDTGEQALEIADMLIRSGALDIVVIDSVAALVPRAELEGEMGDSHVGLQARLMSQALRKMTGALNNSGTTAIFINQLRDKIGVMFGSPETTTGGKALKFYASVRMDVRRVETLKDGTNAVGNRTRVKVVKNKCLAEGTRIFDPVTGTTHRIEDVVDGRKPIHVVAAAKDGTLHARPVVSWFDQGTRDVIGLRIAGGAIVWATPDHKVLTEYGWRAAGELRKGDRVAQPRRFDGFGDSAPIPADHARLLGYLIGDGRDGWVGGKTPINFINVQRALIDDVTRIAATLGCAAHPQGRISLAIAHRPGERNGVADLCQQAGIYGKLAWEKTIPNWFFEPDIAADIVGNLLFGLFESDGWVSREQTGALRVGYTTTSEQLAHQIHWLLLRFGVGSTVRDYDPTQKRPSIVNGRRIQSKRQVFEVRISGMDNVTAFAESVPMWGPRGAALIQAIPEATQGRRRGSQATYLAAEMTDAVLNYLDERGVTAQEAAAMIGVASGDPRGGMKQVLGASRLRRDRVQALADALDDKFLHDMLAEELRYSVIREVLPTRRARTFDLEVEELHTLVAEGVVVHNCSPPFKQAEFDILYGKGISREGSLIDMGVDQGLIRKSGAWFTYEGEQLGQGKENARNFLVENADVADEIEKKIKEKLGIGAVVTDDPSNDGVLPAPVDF

[9] = biological target: Cytochrome P450 2C9 (Homo sapiens, UniProt P11712)
Cytochrome P450 2C9, sequence (P11712 whole entry): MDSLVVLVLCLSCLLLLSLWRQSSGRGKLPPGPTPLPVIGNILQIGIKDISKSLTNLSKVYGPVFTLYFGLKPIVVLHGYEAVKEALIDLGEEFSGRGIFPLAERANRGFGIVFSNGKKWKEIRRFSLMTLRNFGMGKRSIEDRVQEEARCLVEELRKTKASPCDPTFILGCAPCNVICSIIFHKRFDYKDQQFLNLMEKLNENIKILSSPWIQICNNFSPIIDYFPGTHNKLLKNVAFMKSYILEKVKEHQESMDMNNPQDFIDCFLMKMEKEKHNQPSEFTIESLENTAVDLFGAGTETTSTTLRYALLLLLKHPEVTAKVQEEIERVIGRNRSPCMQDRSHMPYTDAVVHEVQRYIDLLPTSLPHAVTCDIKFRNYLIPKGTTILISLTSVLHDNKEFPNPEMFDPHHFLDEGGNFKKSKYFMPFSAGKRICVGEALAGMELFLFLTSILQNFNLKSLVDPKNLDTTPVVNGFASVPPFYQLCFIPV

[10] = biological target: Cytochrome P450 2C19 (Homo sapiens, UniProt P33261); assay: Cytochrome panel assay with activity outcomes. Panel member name: p450-cyp2c19 Compounds with AC50 equal or less than 10 uM are considered active; type: functional; conditions: read-out: AC50
Cytochrome P450 2C19, sequence (P33261 whole entry): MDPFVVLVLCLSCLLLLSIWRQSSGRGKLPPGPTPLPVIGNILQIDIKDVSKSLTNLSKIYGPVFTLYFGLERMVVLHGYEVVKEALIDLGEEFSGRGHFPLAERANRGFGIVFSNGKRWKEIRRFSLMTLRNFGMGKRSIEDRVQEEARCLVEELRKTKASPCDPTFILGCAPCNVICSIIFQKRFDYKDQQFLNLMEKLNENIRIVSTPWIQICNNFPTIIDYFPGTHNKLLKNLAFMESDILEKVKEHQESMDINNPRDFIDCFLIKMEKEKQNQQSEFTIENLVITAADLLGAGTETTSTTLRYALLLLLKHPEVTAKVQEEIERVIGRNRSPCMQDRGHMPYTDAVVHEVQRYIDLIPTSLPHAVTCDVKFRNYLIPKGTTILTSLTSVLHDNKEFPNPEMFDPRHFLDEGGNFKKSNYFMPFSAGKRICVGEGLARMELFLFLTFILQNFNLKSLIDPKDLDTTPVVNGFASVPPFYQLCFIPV

[11] = biological target: T3, Cytochrome P450 1A2 (Homo sapiens, UniProt P05177);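 note: PubChem cytochrome P450 panel assay, CYP1A2 panel member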
T3 sequence (P05177 whole entry): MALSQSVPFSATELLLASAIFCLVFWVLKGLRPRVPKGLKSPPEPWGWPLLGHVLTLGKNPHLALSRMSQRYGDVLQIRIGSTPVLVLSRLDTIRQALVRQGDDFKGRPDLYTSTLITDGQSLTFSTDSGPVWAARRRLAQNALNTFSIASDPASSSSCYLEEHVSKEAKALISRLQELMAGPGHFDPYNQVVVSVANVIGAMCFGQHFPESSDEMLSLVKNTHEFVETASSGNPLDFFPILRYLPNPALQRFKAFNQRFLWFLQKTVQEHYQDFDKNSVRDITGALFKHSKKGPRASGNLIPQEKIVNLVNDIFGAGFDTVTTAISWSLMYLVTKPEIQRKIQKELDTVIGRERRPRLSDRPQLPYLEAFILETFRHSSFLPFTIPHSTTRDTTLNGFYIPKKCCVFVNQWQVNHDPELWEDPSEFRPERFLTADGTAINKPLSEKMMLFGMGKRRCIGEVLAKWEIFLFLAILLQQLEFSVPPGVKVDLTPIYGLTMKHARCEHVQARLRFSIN

[12] = test system: INS1; assay: INS-1E survival protection against cytokine death – cell-based, luminescence, retest, dose response (AID 449756); type: functional; conditions: Rattus norvegicus;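 note: cell death triggered by IL-1 beta plus TNF-alpha plus IFN-gamma mixture; protective hits raise ATP signal compared with cytokine alone wells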

SMILES: CC#CCOC(=O)c1c(C)nc2sc3c(c2c1N)CCC(O)C3 (stereo not given)
- AC50 [1]: 4.7 µM (active)

SMILES: CCOC(=O)c1cnn(-c2ccc(C(F)(F)F)cn2)c1N
- EC50 [2]: 21.1 µM (active)
- EC50 [3]: > 120 µM (not active)
- EC50 [4]: > 120 µM (not active)

SMILES: COc1ccccc1-c1nc(N2CCOCC2)c2ccccc2n1
- AC50 [5]: 12.6 µM (inconclusive)
- AC50 [6]: 15.8 µM (inconclusive)

SMILES: CC1=NNC(=O)C1Cc1ccc(F)cc1 (stereo not given)
- AC50 [7]: 14 µM (active)
- EC50 [8]: 14.2 µM (active)

SMILES: O=C(c1ccc(Cl)cc1)c1c[nH]c(C(=O)C(Cl)(Cl)Cl)c1
- EC50 [8]: > 380 µM (inconclusive)

SMILES: COc1ccc(C(c2c(C)n[nH]c2O)c2c(C)n[nH]c2O)cc1Br
- AC50 [7]: 0.32 µM (active)
- EC50 [8]: 0.289 µM (active)

SMILES: Cc1ccc(-c2nnc(-c3ccc4ccccc4c3)o2)cc1
- AC50 [6]: 6.31 µM (inconclusive)
- AC50 [9]: 5.01 µM (inconclusive)

SMILES: Cn1nc(/C=C/c2ccccc2)ccc1=O
- EC50 [2]: 10.9 µM (active)
- EC50 [3]: 15.2 µM (active)
- EC50 [4]: 14.1 µM (active)

SMILES: CCOC(=O)C1=C(O)/C(=C\c2ccc(OC)c(OC)c2)N=C1C
- AC50 [10]: 39.8 µM (inconclusive)
- AC50 [11]: 8.91 µM (inconclusive)
- AC50 [6]: 15.8 µM (inconclusive)

SMILES: COc1ccccc1NC(=O)Nc1ccc(-n2ccc(C(F)(F)F)n2)cc1
- AC50 [1]: 4.01 µM (active)

SMILES: O=C(C1CCCN(S(=O)(=O)c2ccc([N+](=O)[O-])cc2)C1)N1CCCCC1 (stereo not given)
- AC50 [1]: > 195 µM (inactive)

SMILES: CCOC(=O)C(=NCCCN1CCOCC1)NNc1cccc(C(F)(F)F)c1
- AC50 [1]: 8.17 µM (active)

SMILES: Fc1ccc(NC(S)=Nc2cc(-c3ccccc3)[nH]n2)cc1Cl
- AC50 [1]: 3.05 µM (active)

SMILES: Cc1ccc(C(=O)NC(=S)NCC(=O)c2ccccc2)cc1
- AC50 [11]: 2.24 µM (inconclusive)
- AC50 [6]: 8.91 µM (inconclusive)
- AC50 [9]: 2.51 µM (inconclusive)

SMILES: Cc1cc(C(=O)CSc2cccc[n+]2[O-])c(C)n1-c1ccc(Br)cc1
- EC50 [2]: < 0.1 µM (active)
- EC50 [3]: 55.6 µM (active)
- EC50 [4]: > 120 µM (not active)

SMILES: Cc1ccc2nsnc2c1NS(=O)(=O)c1c(C)ccc2nsnc12
- AC50 [7]: 37.8 µM (active)
- EC50 [8]: 24.8 µM (active)

SMILES: Clc1ccc(-c2cnc(Oc3ccccc3)nc2)cc1
- EC50 [2]: 2.63 µM (active)
- EC50 [3]: 0.194 µM (active)

SMILES: Cc1csc2c(N3CCN(C(=O)c4ccc(C(C)(C)C)cc4)CC3)ncnc12
- AC50 [12]: 13.2 µM (active)

SMILES: COc1ccc(C(CC(=O)Nc2ccccn2)N2Cc3ccccc3C2=O)cc1 (stereo not given)
- EC50 [2]: > 60 µM (not active)
- EC50 [3]: 16.4 µM (active)
- EC50 [4]: > 120 µM (not active)

SMILES: COc1ccc(NC(=O)N2CC[C@@]3(CCCN(S(C)(=O)=O)C3)C2)cc1
- AC50 [11]: 25.1 µM (inconclusive)
- AC50 [6]: 39.8 µM (inconclusive)

SMILES: Cc1ccc(NC(=O)CC2SCCNC2=O)cc1Cl (stereo not given)
- EC50 [2]: 14.5 µM (active)
- EC50 [3]: 30.9 µM (active)
- EC50 [4]: > 120 µM (not active)

SMILES: Cc1ccccc1C(=O)N1CCN(c2ccc(NC(=O)c3cccnc3)cc2)CC1
- AC50 [12]: 7.89 µM (active)

SMILES: O=C(Nc1cccn2ncnc12)c1ccccc1
- EC50 [2]: > 120 µM (not active)
- EC50 [3]: 14.8 µM (active)
- EC50 [4]: 23.5 µM (active)

SMILES: COc1ccc(CCc2nc(-c3cccs3)no2)cc1
- EC50 [2]: 19.2 µM (active)
- EC50 [3]: 6.22 µM (active)
- EC50 [4]: 23.3 µM (active)

SMILES: COc1ccc(-c2ccc(C)cc2)cc1[C@H]1[C@@H]2C=CCC[C@@]2(C)C(=O)N1Cc1ccccc1
- AC50 [1]: 3.36 µM (active)

SMILES: Cc1cc(C)n(C(=O)c2cc3sccc3[nH]2)n1
- EC50 [2]: 6.99 µM (active)
- EC50 [3]: 14.6 µM (active)
- EC50 [4]: 83.6 µM (inconclusive)

SMILES: Cc1n[nH]c(O)c1C(c1ccc([N+](=O)[O-])cc1)c1c(C)n[nH]c1O
- AC50 [7]: 0.704 µM (active)
- EC50 [8]: 0.27 µM (active)

SMILES: CCOc1cc(/C=C2\C(=O)N(c3ccc(C(N)=O)cc3)N=C2C)ccc1OC(=O)c1cccs1
- AC50 [7]: 2.35 µM (active)
- EC50 [8]: 1.93 µM (active)

SMILES: O=C(Nc1ccccc1N(C(=O)c1ccco1)S(=O)(=O)c1cccs1)c1ccco1
- AC50 [7]: 5.6 µM (active)
- EC50 [8]: 8.58 µM (active)

SMILES: Cc1ccccc1NC(=O)C1Cc2ccccc2CN1C(=O)c1ccco1 (stereo not given)
- EC50 [2]: 35.6 µM (active)
- EC50 [3]: 39.3 µM (active)
- EC50 [4]: 12.7 µM (active)

SMILES: CCc1cc2c(nc1CC)CCN(CC/C(C)=N/OC[C@H]1O[C@H](c3ccccc3)C=C[C@@H]1Oc1ccc(OC)cc1)C2
- AC50 [5]: 6.31 µM (inconclusive)
- AC50 [6]: 6.31 µM (inconclusive)
- AC50 [9]: 6.31 µM (inconclusive)

SMILES: C[C@](O)(C(=O)Nc1ccc(S(=O)(=O)c2ccccc2)cc1)C(F)(F)F
- AC50 [10]: 6.31 µM (inconclusive)
- AC50 [5]: 31.6 µM (inconclusive)
- AC50 [11]: 39.8 µM (inconclusive)
- AC50 [6]: 31.6 µM (inconclusive)

SMILES: O=c1c2c3nc4ccccc4nc3n(/N=C/c3ccccn3)c2ncn1-c1ccccc1
- EC50 [2]: > 120 µM (not active)
- EC50 [3]: 13 µM (active)
- EC50 [4]: > 120 µM (not active)

SMILES: COc1ccc(OC)c(/C=N/c2ccccc2-c2nc3ccccc3[nH]2)c1
- EC50 [2]: 13.1 µM (active)
- EC50 [3]: 8.07 µM (active)
- EC50 [4]: 10.8 µM (active)
